# Data: patent US4567293A, “2-[Para-(2-substituted or unsubstituted-3,3,3-tri-fluoropropyl)phenyl]propionic acid or a salt thereof” (Kureha Kagaku Kogyo Kabushiki Kaisha, priority 1981, dated 1986)
# Key:
# in vivo = settings: oral, mouse, in olive oil, 14 days observation
# Method: Acute toxicity of the present compound were determined as follows.
# Each of the specimens was dispersed in an olive oil. The dispersion was administered to an ICR-JCL mouse orally by a stomach sonde at a predetermined amount. After administration, the intoxication symptoms were continuously observed for 14 days. LD50 value was obtained from the cumulative mortality of the mice by applying the data to the Litchfield-Wilcoxon's graphical method.
# [1] = test system: carrageenin-induced edema; assay: Anti-inflammatory activity: inhibition of carrageenin-induced edema (Example 6); format: in vivo, rat (female Wister); settings: 4 hours after carrageenin
# Method: Anti-inflammatory activity of the present compound was examined by using 10 female Wister rats of 110 to 130 g of body weight as one group following the method of C. A. Winter [refer to Proc. Soc. Exp. Biol. Med., 111, 544(1962)]in which the ratio of inhibiting the carrageenin-induced edema is determined.
# (§1) An aqueous suspension of each specimen in an aqueous 1% carboxymethoxycellulose solution was orally administered to the rat in volume of 1 ml per 100 g body weight. The rat as the control group was administered with only an aqueous 1% solution of carboxymethoxycellulose. One hour after the administration, 0.1 ml of an aqueous 1% solution of carrageenin in physiological saline was injected into the plantar tissue of the right hind paw of the rat. Then, after 4 hours from the injection, the volume of the injected foot was measured to find the volume of swelling by subtracting the volume of foot before the injection from that value.
# (§2) By comparing the volume of the swelling of the administered group to that of the control group, the ratio of inhibiting the swelling (I.R., %) was calculated according to the following formula: [formula] wherein T represents the average volume of swelling in the group administered with the specimen, and
# (§3) C represents the average volume of swelling in the control group.
# [2] = test system: carrageenin-induced edema; assay: Anti-inflammatory activity: inhibition of carrageenin-induced edema (Example 7, rats of 92 to 112 g); format: in vivo, rat (female Wister)
# Method: […] A. Winter [refer to Proc. Soc.
# as §1, §2, §3
SMILES,LD50 at 336 h (in vivo) [mg/kg],Inhibitation of carrageenin-induced edema ([1]; oral dose 2.5 mg/Kg) [%],Inhibitation of carrageenin-induced edema ([1]; oral dose 5 mg/Kg) [%],Inhibitation of carrageenin-induced edema ([1]; oral dose 10 mg/Kg) [%],Inhibitation of carrageenin-induced edema ([1]; oral dose 25 mg/Kg) [%],Inhibitation of carrageenin-induced edema ([1]; oral dose 50 mg/Kg) [%],Inhibitation of carrageenin-induced edema ([1]; oral dose 100 mg/Kg) [%],Inhibitation of carrageenin-induced edema ([1]; oral dose 200 mg/Kg) [%],Inhibition of carrageenin-induced edema ([2]; oral dose 25 mg/kg) [%],Inhibition of carrageenin-induced edema ([2]; oral dose 100 mg/kg) [%]
"CC(C(=O)O)c1ccc(CC(C(F)(F)F)C(F)(F)F)cc1 (centres unmarked) [Specimen I, 2-[p-(2-trifluoromethyl-3,3,3-trifluoropropyl)phenyl]propionic acid]",1100,37,40,46,50,55,57,63,–,–
"CC(C(=O)O)c1ccc(CC(C)C(F)(F)F)cc1 (centres unmarked) [Specimen II, 2-[p-(2-methyl-3,3,3-trifluoropropyl)phenyl]propionic acid]",1040,–,37,40,–,50,54,65,–,–
"CC(C)Cc1ccc(C(C)C(=O)O)cc1 (centres unmarked) [Specimen IV, 2-(p-isobutylphenyl)propionic acid, reference compound]",–,–,–,–,29,40,42,52,–,–
"CC(=O)Oc1ccccc1C(=O)O [Specimen V, acetyl salicyclic acid, reference compound]",–,–,–,–,–,–,–,–,10,28
"CC(C(=O)O)c1ccc(CCC(F)(F)F)cc1 (centres unmarked) [Specimen III, 2-[p-(3,3,3-trifluoropropyl)phenyl]propionic acid]",1000,–,–,–,–,–,–,–,38,44
